Where two headings read alike, the source gives them in different places.
What was measured:
Escherichia coli = conditions: literature citation 28; cited from earlier work
Salmonella enterica [1] = conditions: literature citation 38; cited from earlier work
Shigella flexneri = conditions: literature citation 28; cited from earlier work
Neisseria gonorrhoeae = conditions: literature citation 28; cited from earlier work
Pseudomonas aeruginosa [2] = assay: Minimal inhibitory concentration (MIC) determination; assay type: cell-based
Staphylococcus aureus [3] = conditions: literature citation 10; cited from earlier work
[4] = target: PBP2a from Enterococcus faecalis; assay: Fluorescence anisotropy direct binding assay; conditions: FA direct binding, 100 nM F-Moe, 10 mM Tris pH 8.0, 100 mM NaCl; read-out: FA_KD
Description: Fluorescence anisotropy measurements were carried out in triplicates in the wells of 384-well plates using a laser fluorimetry equipped with a 488 nm laser (IsoCyte, Blueshift Biotech, Inc., Sunnyvale, Calif., USA). Various buffers, salts, pH values, and divalent cations (Ca^++, Mg^++, Co^++) were optimized for fluorescence anisotropy measurements. […] The scanning focus was above the plate bottom to avoid detection interferences. Data analysis was performed with the proprietary software, BlueImage (Blueshift Biotech Inc). Fluorescence anisotropy values (A) were calculated using the equation: A=(/∥−G*/⊥)/(/∥+2G*/⊥), where /∥ is the fluorescence intensity of emitted light parallel to excitation, /⊥ is the fluorescence intensity of emitted light perpendicular to excitation, and G is the […] that corrects for instrument bias. The G factor is experimentally determined for each run using the probe-only well as the basal an isotropy.
For direct binding assay, the initial condition contained 40 μl of 100 nM F-Moe in 10 mM Tris, pH 8.0, 100 mM NaCl. After a small volume of PBP stock was added, the anisotropy change was measured after a 5-minute equilibration. We assume that the direct titration follows a simple binding equilibrium between Ligand (L) and Receptor (R)
[formula] […]

Clostridium difficile [5] = assay: Minimal inhibitory concentration (MIC) determination; assay type: cell-based
Klebsiella pneumoniae [6] = assay: as above; assay type: cell-based
Bordetella pertussis = assay: as above; assay type: cell-based
Bacillus subtilis [7] = assay: as above; assay type: cell-based
Description: (§1) The minimal inhibitory concentration (MIC) of tested compounds was determined following the NCCLS standard. The experiments were conducted in 96-well microtiter plates using two-fold dilutions in Muller-Hilton broth with (Streptococcus pneumonia) or without blood (Bacillus subtilis, Enterococcus faecalis, Staphylococcus aureus). Exponentially growing cells at 5×10^5 cells/ml were incubated with test compounds at various concentrations.

Streptococcus pneumoniae = assay: as above; assay type: cell-based
Description: as §1

Enterococcus faecalis = assay: as above; assay type: cell-based
Description: as §1

Staphylococcus aureus [8] = assay: as above; assay type: cell-based
Description: as §1

Enterococcus faecium = conditions: literature citation 10; cited from earlier work
Bacillus subtilis [9] = conditions: literature citation 30; cited from earlier work
Salmonella enterica [10] = assay: Minimal inhibitory concentration (MIC) determination; assay type: cell-based
[11] = target: PBP1b from Citrobacter freundii; assay: SPR moenomycin binding to immobilized full-length PBP; conditions: steady-state affinity, average values, read-out: SPR_KD
Pseudomonas aeruginosa [12] = conditions: literature citation 28; cited from earlier work
[13] = target: PBP2a from Enterococcus faecalis; assay: SPR moenomycin binding to immobilized full-length PBP; conditions: steady-state affinity, average values, read-out: SPR_KD
Clostridium difficile [14] = conditions: literature citation 30; cited from earlier work
Klebsiella pneumoniae [15] = conditions: literature citation 28; cited from earlier work
Helicobacter pylori = conditions: literature citation 29; cited from earlier work

## Moenomycin A [Compound 1]
Escherichia coli
  Reported values MIC: 55 to 110 µM
Salmonella enterica [1]
  Reported values MIC: 13.75 to 110 µM
Shigella flexneri
  Reported values MIC: 27.5 to 110 µM
Neisseria gonorrhoeae
  Reported values MIC: 1.69 µM
Pseudomonas aeruginosa [2]
  MIC: 40 µM
Staphylococcus aureus [3]
  Reported values MIC: 0.02 to 0.12 µM
[4]
  Kd: 276 ± 14 nM
Clostridium difficile [5]
  MIC: >160 µM
Klebsiella pneumoniae [6]
  MIC: 80 µM
Bordetella pertussis
  MIC: 0.011 to 0.021 µM
Bacillus subtilis [7]; B. subtilis ATCC23857, Muller-Hilton broth, 18 h to 24 h, 37° C., read-out: MIC B. subtilis (ATCC23857)
  MIC: 0.33 µM
Bacillus subtilis [7]; Bacillus subtilis (Table 1)
  MIC: 0.3 to 0.6 µM
Streptococcus pneumoniae; S. pneumoniae ATCC49619, Muller-Hilton broth with blood, 18 h to 24 h, 37° C., read-out: MIC S. pneumoniae (ATCC49619)
  MIC: 0.33 µM
Streptococcus pneumoniae; Streptococcus pneumoniae (Table 1)
  MIC: 0.625 µM
Enterococcus faecalis; E. faecalis ATCC29212, Muller-Hilton broth, 18 h to 24 h, 37° C., read-out: MIC E. faecalis (ATCC29212)
  MIC: 0.04 µM
Enterococcus faecalis; Enterococcus faecalis (Table 1)
  MIC: 0.075 to 0.3 µM
Staphylococcus aureus [8]; S. aureus ATCC29213, Muller-Hilton broth, 18 h to 24 h, 37° C., read-out: MIC S. aureus (ATCC29213)
  MIC: <0.01 µM
Staphylococcus aureus [8]; Staphylococcus aureus (Table 1)
  MIC: 0.075 µM
Enterococcus faecium
  Reported values MIC: >40.5 µM
Bacillus subtilis [9]
  Reported values MIC: 0.07 to 0.43 µM
Salmonella enterica [10]
  MIC: 160 µM
[11]
  Kd: 728 nM
Pseudomonas aeruginosa [12]
  Reported values MIC: 55 to 110 µM
[13]
  Kd: 619 nM
Clostridium difficile [14]
  Reported values MIC: 220 to 440 µM
Klebsiella pneumoniae [15]
  Reported values MIC: 13.75 to 27.5 µM
Helicobacter pylori
  Reported values MIC: 1.3 µM
